Measured values reported in ChEMBL document CHEMBL5303573, “Mapping human microbiome drug metabolism by gut bacteria and their genes” (Nature, 2019).

Assay: The drug is tested on Collinsella intestinalis strain: DSM13280 for biotransformation. The drug concentrations were measured before and after a 12-h incubation by liquid-chromatography-coupled mass spectrometry (LC–MS)
Conditions: 2 µM
In the case of `CCOC(=O)[C@H](CCc1ccccc1)N[C@@H](C)C(=O)N1CCC[C@H]1C(=O)O.O=C(O)/C=C\C(=O)O` [ENALAPRIL MALEATE], the “Bacterial Biotransformation” value is reported as “Compound NOT metabolized”.
With `Fc1ccc([C@@H]2CCNC[C@H]2COc2ccc3c(c2)OCO3)cc1` [PAROXETINE] the “Bacterial Biotransformation” value was “Compound NOT metabolized”.

Assay: The drug is tested on Enterobacter cancerogenus strain: ATCC35316 for biotransformation. The drug concentrations were measured before and after a 12-h incubation by liquid-chromatography-coupled mass spectrometry (LC–MS)
Conditions: 2 µM
For `Fc1ccc([C@@H]2CCNC[C@H]2COc2ccc3c(c2)OCO3)cc1` [PAROXETINE], the “Bacterial Biotransformation” value was “Compound metabolized”.

Conditions: bacteroides stercoris, 12 h, 2 µM
Description: The drug is tested on Bacteroides stercoris strain: ATCC43183 for biotransformation. The drug concentrations were measured before and after a 12-h incubation by liquid-chromatography-coupled mass spectrometry (LC–MS)
In the case of `CCOC(=O)[C@H](CCc1ccccc1)N[C@@H](C)C(=O)N1CCC[C@H]1C(=O)O.O=C(O)/C=C\C(=O)O` [ENALAPRIL MALEATE], the “Bacterial Biotransformation” value is reported as “Compound NOT metabolized”.
For `Fc1ccc([C@@H]2CCNC[C@H]2COc2ccc3c(c2)OCO3)cc1` [PAROXETINE], the “Bacterial Biotransformation” value was “Compound metabolized”.

Assay: The drug is tested on Bacteroides ovatus strain: ATCC8483 for biotransformation. The drug concentrations were measured before and after a 12-h incubation by liquid-chromatography-coupled mass spectrometry (LC–MS)
Conditions: 2 µM
For `CCOC(=O)[C@H](CCc1ccccc1)N[C@@H](C)C(=O)N1CCC[C@H]1C(=O)O.O=C(O)/C=C\C(=O)O` [ENALAPRIL MALEATE], the “Bacterial Biotransformation” value was “Compound NOT metabolized”.
For `Fc1ccc([C@@H]2CCNC[C@H]2COc2ccc3c(c2)OCO3)cc1` [PAROXETINE], the “Bacterial Biotransformation” value was “Compound NOT metabolized”.

Assay: The drug is tested on Bacteroides coprophilus strain: DSM18228 for biotransformation. The drug concentrations were measured before and after a 12-h incubation by liquid-chromatography-coupled mass spectrometry (LC–MS)
Conditions: 2 µM
In the case of `Fc1ccc([C@@H]2CCNC[C@H]2COc2ccc3c(c2)OCO3)cc1` [PAROXETINE], the “Bacterial Biotransformation” value is reported as “Compound NOT metabolized”.

Assay: The drug is tested on Eubacterium rectale strain: ATCC33656 for biotransformation. The drug concentrations were measured before and after a 12-h incubation by liquid-chromatography-coupled mass spectrometry (LC–MS)
Conditions: agathobacter rectalis, 2 µM
For `CCOC(=O)[C@H](CCc1ccccc1)N[C@@H](C)C(=O)N1CCC[C@H]1C(=O)O.O=C(O)/C=C\C(=O)O` [ENALAPRIL MALEATE], the “Bacterial Biotransformation” value was “Compound NOT metabolized”.

Assay: The drug is tested on Parabacteroides merdae strain: ATCC43184 for biotransformation. The drug concentrations were measured before and after a 12-h incubation by liquid-chromatography-coupled mass spectrometry (LC–MS)
Conditions: 2 µM
With `CCOC(=O)[C@H](CCc1ccccc1)N[C@@H](C)C(=O)N1CCC[C@H]1C(=O)O.O=C(O)/C=C\C(=O)O` [ENALAPRIL MALEATE] the “Bacterial Biotransformation” value was “Compound NOT metabolized”.
For `Fc1ccc([C@@H]2CCNC[C@H]2COc2ccc3c(c2)OCO3)cc1` [PAROXETINE], the “Bacterial Biotransformation” value was “Compound NOT metabolized”.

Assay: The drug is tested on Subdoligranulum variabile strain: DSM15176 for biotransformation. The drug concentrations were measured before and after a 12-h incubation by liquid-chromatography-coupled mass spectrometry (LC–MS)
Conditions: 2 µM
For `CCOC(=O)[C@H](CCc1ccccc1)N[C@@H](C)C(=O)N1CCC[C@H]1C(=O)O.O=C(O)/C=C\C(=O)O` [ENALAPRIL MALEATE], the “Bacterial Biotransformation” value was “Compound NOT metabolized”.

Assay: The drug is tested on Bacteroides fragilis strain: HMW610 for biotransformation. The drug concentrations were measured before and after a 12-h incubation by liquid-chromatography-coupled mass spectrometry (LC–MS)
Conditions: 2 µM
For `Fc1ccc([C@@H]2CCNC[C@H]2COc2ccc3c(c2)OCO3)cc1` [PAROXETINE], the “Bacterial Biotransformation” value was “Compound NOT metabolized”.

Assay: The drug is tested on Bacteroides fragilis strain: ATCC43859 for biotransformation. The drug concentrations were measured before and after a 12-h incubation by liquid-chromatography-coupled mass spectrometry (LC–MS)
Conditions: 2 µM
In the case of `Fc1ccc([C@@H]2CCNC[C@H]2COc2ccc3c(c2)OCO3)cc1` [PAROXETINE], the “Bacterial Biotransformation” value is reported as “Compound NOT metabolized”.

Assay: The drug is tested on Bacteroides pectinophilus strain: ATCC43243 for biotransformation. The drug concentrations were measured before and after a 12-h incubation by liquid-chromatography-coupled mass spectrometry (LC–MS)
Conditions: 2 µM
In the case of `CCOC(=O)[C@H](CCc1ccccc1)N[C@@H](C)C(=O)N1CCC[C@H]1C(=O)O.O=C(O)/C=C\C(=O)O` [ENALAPRIL MALEATE], the “Bacterial Biotransformation” value is reported as “Compound NOT metabolized”.
With `Fc1ccc([C@@H]2CCNC[C@H]2COc2ccc3c(c2)OCO3)cc1` [PAROXETINE] the “Bacterial Biotransformation” value was “Compound metabolized”.

Assay: The drug is tested on Dorea formicigenerans strain: ATCC27755 for biotransformation. The drug concentrations were measured before and after a 12-h incubation by liquid-chromatography-coupled mass spectrometry (LC–MS)
Conditions: 2 µM
For `CCOC(=O)[C@H](CCc1ccccc1)N[C@@H](C)C(=O)N1CCC[C@H]1C(=O)O.O=C(O)/C=C\C(=O)O` [ENALAPRIL MALEATE], the “Bacterial Biotransformation” value was “Compound NOT metabolized”.
With `Fc1ccc([C@@H]2CCNC[C@H]2COc2ccc3c(c2)OCO3)cc1` [PAROXETINE] the “Bacterial Biotransformation” value was “Compound NOT metabolized”.

Assay: The drug is tested on Alistipes indistinctus strain: DSM22520 for biotransformation. The drug concentrations were measured before and after a 12-h incubation by liquid-chromatography-coupled mass spectrometry (LC–MS)
Conditions: 2 µM
For `Fc1ccc([C@@H]2CCNC[C@H]2COc2ccc3c(c2)OCO3)cc1` [PAROXETINE], the “Bacterial Biotransformation” value was “Compound NOT metabolized”.

Assay: The drug is tested on Blautia luti strain: DSM14534 for biotransformation. The drug concentrations were measured before and after a 12-h incubation by liquid-chromatography-coupled mass spectrometry (LC–MS)
Type: ADME
Design: dose 2 uM, timepoint 0 vs 12 hours
Conditions: 2 µM
For `CCOC(=O)[C@H](CCc1ccccc1)N[C@@H](C)C(=O)N1CCC[C@H]1C(=O)O.O=C(O)/C=C\C(=O)O` [ENALAPRIL MALEATE], the “Bacterial Biotransformation” value was “Compound NOT metabolized”.
In the case of `Fc1ccc([C@@H]2CCNC[C@H]2COc2ccc3c(c2)OCO3)cc1` [PAROXETINE], the “Bacterial Biotransformation” value is reported as “Compound NOT metabolized”.

Assay: The drug is tested on Ruminococcus torques strain: ATCC27756 for biotransformation. The drug concentrations were measured before and after a 12-h incubation by liquid-chromatography-coupled mass spectrometry (LC–MS)
Type: ADME
Design: dose 2 uM, timepoint 0 vs 12 hours
Conditions: 2 µM
In the case of `CCOC(=O)[C@H](CCc1ccccc1)N[C@@H](C)C(=O)N1CCC[C@H]1C(=O)O.O=C(O)/C=C\C(=O)O` [ENALAPRIL MALEATE], the “Bacterial Biotransformation” value is reported as “Compound NOT metabolized”.
In the case of `Fc1ccc([C@@H]2CCNC[C@H]2COc2ccc3c(c2)OCO3)cc1` [PAROXETINE], the “Bacterial Biotransformation” value is reported as “Compound NOT metabolized”.

Assay: The drug is tested on Clostridium asparagiforme strain: DSM15981 for biotransformation. The drug concentrations were measured before and after a 12-h incubation by liquid-chromatography-coupled mass spectrometry (LC–MS)
Type: ADME
Design: dose 2 uM, timepoint 0 vs 12 hours
Conditions: enterocloster asparagiformis, 2 µM
In the case of `CCOC(=O)[C@H](CCc1ccccc1)N[C@@H](C)C(=O)N1CCC[C@H]1C(=O)O.O=C(O)/C=C\C(=O)O` [ENALAPRIL MALEATE], the “Bacterial Biotransformation” value is reported as “Compound NOT metabolized”.
For `Fc1ccc([C@@H]2CCNC[C@H]2COc2ccc3c(c2)OCO3)cc1` [PAROXETINE], the “Bacterial Biotransformation” value was “Compound NOT metabolized”.

Assay: The drug is tested on Coprococcus comes strain: ATCC27758 for biotransformation. The drug concentrations were measured before and after a 12-h incubation by liquid-chromatography-coupled mass spectrometry (LC–MS)
Type: ADME
Design: dose 2 uM, timepoint 0 vs 12 hours
Conditions: 2 µM
For `CCOC(=O)[C@H](CCc1ccccc1)N[C@@H](C)C(=O)N1CCC[C@H]1C(=O)O.O=C(O)/C=C\C(=O)O` [ENALAPRIL MALEATE], the “Bacterial Biotransformation” value was “Compound NOT metabolized”.
For `Fc1ccc([C@@H]2CCNC[C@H]2COc2ccc3c(c2)OCO3)cc1` [PAROXETINE], the “Bacterial Biotransformation” value was “Compound NOT metabolized”.

Assay: The drug is tested on Clostridium symbiosum strain: ATCC14940 for biotransformation. The drug concentrations were measured before and after a 12-h incubation by liquid-chromatography-coupled mass spectrometry (LC–MS)
Conditions: 2 µM
With `CCOC(=O)[C@H](CCc1ccccc1)N[C@@H](C)C(=O)N1CCC[C@H]1C(=O)O.O=C(O)/C=C\C(=O)O` [ENALAPRIL MALEATE] the “Bacterial Biotransformation” value was “Compound NOT metabolized”.
For `Fc1ccc([C@@H]2CCNC[C@H]2COc2ccc3c(c2)OCO3)cc1` [PAROXETINE], the “Bacterial Biotransformation” value was “Compound NOT metabolized”.

Assay: The drug is tested on Edwardsiella tarda strain: ATCC23685 for biotransformation. The drug concentrations were measured before and after a 12-h incubation by liquid-chromatography-coupled mass spectrometry (LC–MS)
Conditions: 2 µM
With `CCOC(=O)[C@H](CCc1ccccc1)N[C@@H](C)C(=O)N1CCC[C@H]1C(=O)O.O=C(O)/C=C\C(=O)O` [ENALAPRIL MALEATE] the “Bacterial Biotransformation” value was “Compound NOT metabolized”.
In the case of `Fc1ccc([C@@H]2CCNC[C@H]2COc2ccc3c(c2)OCO3)cc1` [PAROXETINE], the “Bacterial Biotransformation” value is reported as “Compound NOT metabolized”.

Conditions: enterocloster bolteae, 12 h, 2 µM
Description: The drug is tested on Clostridium bolteae strain: ATCCBAA-613 for biotransformation. The drug concentrations were measured before and after a 12-h incubation by liquid-chromatography-coupled mass spectrometry (LC–MS)
With `CCOC(=O)[C@H](CCc1ccccc1)N[C@@H](C)C(=O)N1CCC[C@H]1C(=O)O.O=C(O)/C=C\C(=O)O` [ENALAPRIL MALEATE] the “Bacterial Biotransformation” value was “Compound NOT metabolized”.
For `Fc1ccc([C@@H]2CCNC[C@H]2COc2ccc3c(c2)OCO3)cc1` [PAROXETINE], the “Bacterial Biotransformation” value was “Compound metabolized”.
